Measurements: patent US20200239530A1, “COMPOUNDS AND METHODS OF MODULATING PROTEIN DEGRADATION” (Vividion Therapeutics, Inc., priority 2017, published 2020)

Molecular target: T1, NAA15 N-alpha-acetyltransferase 15, NatA auxiliary subun (Homo sapiens, UniProt Q9BXJ9)
T1 construct: Cells were resuspended in cold PBS on ice and sonicated with a probe sonicator to achieve lysis; endogenous in cells
T1 sequence (Q9BXJ9 1-866): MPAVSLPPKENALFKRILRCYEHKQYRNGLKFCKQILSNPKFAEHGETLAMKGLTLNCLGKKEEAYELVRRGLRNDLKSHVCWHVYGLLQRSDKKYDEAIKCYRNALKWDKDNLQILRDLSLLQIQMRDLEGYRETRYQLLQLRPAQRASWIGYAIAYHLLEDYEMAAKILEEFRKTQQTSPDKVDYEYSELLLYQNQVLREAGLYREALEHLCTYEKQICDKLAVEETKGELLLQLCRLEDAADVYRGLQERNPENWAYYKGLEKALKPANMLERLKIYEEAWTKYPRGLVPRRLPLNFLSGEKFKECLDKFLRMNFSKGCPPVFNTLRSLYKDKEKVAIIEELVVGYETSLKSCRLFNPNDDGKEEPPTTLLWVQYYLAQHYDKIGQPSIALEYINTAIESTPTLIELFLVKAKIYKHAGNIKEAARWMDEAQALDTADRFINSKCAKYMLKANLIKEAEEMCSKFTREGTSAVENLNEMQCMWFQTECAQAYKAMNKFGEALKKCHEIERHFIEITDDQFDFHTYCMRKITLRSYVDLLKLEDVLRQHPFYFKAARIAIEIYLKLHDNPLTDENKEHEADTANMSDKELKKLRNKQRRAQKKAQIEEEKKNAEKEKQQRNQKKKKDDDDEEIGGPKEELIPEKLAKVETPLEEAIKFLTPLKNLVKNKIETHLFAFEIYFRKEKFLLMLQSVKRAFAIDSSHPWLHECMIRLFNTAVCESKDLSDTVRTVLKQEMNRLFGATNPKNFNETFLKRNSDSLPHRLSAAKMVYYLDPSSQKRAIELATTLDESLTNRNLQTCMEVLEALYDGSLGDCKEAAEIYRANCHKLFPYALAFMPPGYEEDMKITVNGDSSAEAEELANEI
Test: Cysteine liganding, probe competition
Assay type: binding
Outline: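 Lysates from probe-sonicated cells in PBS (5 mg/ml proteome) were exposed to compound for 1 hr at 25° C, then labelled with desthiobiotin iodoacetamide probe (10 mM stock) for 1 hr at 25° C. Probe-tagged peptides were streptavidin-enriched after trypsin digestion.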

Structure (SMILES)	Liganded (NAA15 Res# 817, uniprot Q9BXJ9)	100 Max (uniprot Q9BXJ9)	100 ave (uniprot Q9BXJ9)	500 Max (uniprot Q9BXJ9)	500 ave (uniprot Q9BXJ9)
COc1ccc2c(c1)CCCN2C(=O)CCl [KB02]	YES				
O=C(CCl)Nc1cc(C(F)(F)F)cc(C(F)(F)F)c1 [KBO3]		−21.23	−31.6767	14.66	14.66
